In patent US20020006406A1, “METHOD FOR THE TREATMENT OF STAPHYLOCOCCAL DISEASE” (priority 1997, published 2002):
Values after ≈ are worked out from the molar mass of the structure shown.

How the values were obtained:
S. aureus strain AG461 [1] = details: strain AG461 (methicillin-resistant clinical isolate)
Description: The different concentrations of lysostaphin and vancomycin used were one and eight times their respective MIC.

S. aureus Smith = experiment: Acute S. aureus infection model in mice (survival); format: in vivo
Description: The efficacy of lysostaphin was compared to that of vancomycin in an acute infection model in mice. S. aureus Smith was cultured overnight, with moderate agitation, in Veal Infusion broth (Difco) and diluted in broth containing 5% hog gastric mucin (Difco). Male Swiss-Webster mice (Taconic Farms, Germantown, N.Y.) weighing approximately 20 grams were infected intraperitoneally with 10^5-10^6 viable cells, approximately tenfold the inoculum that reproducibly killed all untreated animals within 48 h. There were six mice in each treatment group. Lysostaphin was administered intravenously (in 0.1 ml 5% dextrose for injection) or subcutaneously (in 0.2 ml), within 10 min of infection. Vancomycin was administered subcutaneously.

S. aureus strain AG461 [2] = experiment: Time-kill experiment, S. aureus AG461 (FIG. 1); format: cell-based; details: 2 and 16 μg/ml (1x and 8x MIC), three hours of contact
Description: The bactericidal activity of lysostaphin against S. aureus was also studied by means of time-kill experiments. In one experiment of this type, S. aureus strain AG461, a methicillin-resistant clinical isolate from Genoa, Italy, was inoculated into Mueller-Hinton broth (Difco) and grown at 37° C. with gentle shaking until it reached approximately 10^8 viable cells per ml (CFU/ml), as estimated from the absorbance of the culture at 600 nm. The culture was then diluted with fresh broth to approximately 10^6 CFU/ml and 5 ml aliquots were placed in several different flasks for exposure to different concentrations of antibacterial agents. Incubation was continued, with gentle shaking, at 37° C., and samples were withdrawn at intervals for determination of viable cells. Serial 10-fold dilutions of the samples were made in sterile saline (0.9% NaCl in distilled water) and duplicate 0.1 ml aliquots of appropriate dilutions were plated on Tryptic Soy agar plates (Remel) using the agar inclusion method. (In this method, the aliquot to be plated is added to 2.5 ml of top agar, which is mixed and poured onto a plate. Top agar consisted of molten Tryptic Soy agar (Difco) diluted 2-fold with Difco Tryptic Soy broth to give a final agar concentration of 0.75%, w/v.) The plates were incubated for 24-48 hours at 36° C. and the colonies were counted manually. […]

[3] = tested on: methicillin-resistant VISA strain of S. aureus; experiment: Vancomycin MIC for the laboratory-selected VISA strain; format: cell-based; details: Staphylococcus aureus, variant strain selected after cycles of growth in glycopeptide-containing medium
Description: Strains that are both methicillin-resistant and resistant to vancomycin are a newly emerging problem. A variant strain of this type was selected after cycles of growth in glycopeptide-containing medium. The vancomycin MIC for the resulting strain was 8 μg/ml, as reported also for naturally occurring VISA strains isolated from patients in the U.S. and Japan. (Centers for Disease Control and Prevention, Morbidity and Mortality Weekly Report 1997; 46:813-815). Staphylococcal isolates are considered to be susceptible to vancomycin if the MIC is less than or equal to 4 μg/ml and to be completely resistant if the MIC is greater than or equal to 32 μg/ml (National Committee for Clinical Laboratory Standards, 1993. Approved Standard M2-A5. Performance standards for antimicrobial disk susceptibility tests—Fifth edition. National Committee for Clinical Laboratory Standards, Villanova, Pa.)

S. aureus = experiment: MIC by broth macrodilution in glass tubes; format: cell-based
Description: In this experiment, MICs were determined by broth macrodilution in 1 ml final volumes in glass tubes. Otherwise, the methodology was as described above.

Compound | MIC (lower time-kill concentration stated to be one times MIC) (S. aureus strain AG461 [1]) | % survival (S. aureus Smith; 5 mg/kg sc) | bactericidal action (killing of the bacteria) (S. aureus strain AG461 [2]) | MIC [3] | % survival (S. aureus Smith; Table 4 experiment, dose 0.08 mg/kg) | % survival (S. aureus Smith; Table 4 experiment, dose 0.16 mg/kg) | % survival (S. aureus Smith; Table 4 experiment, dose 0.31 mg/kg) | % survival (S. aureus Smith; Table 4 experiment, dose 0.63 mg/kg) | MIC (S. aureus; strain AG402 (clinical isolate)) | MIC (S. aureus; strain AG404 (clinical isolate, methicillin-resistant)) | MIC (S. aureus; strain AG414) | MIC (S. aureus; strain AG417)
CN[C@H](CC(C)C)C(=O)N[C@H]1C(=O)N[C@@H](CC(N)=O)C(=O)N[C@H]2C(=O)N[C@H]3C(=O)N[C@H](C(=O)N[C@H](C(=O)O)c4cc(O)cc(O)c4-c4cc3ccc4O)[C@H](O)c3ccc(c(Cl)c3)Oc3cc2cc(c3O[C@@H]2O[C@H](CO)[C@@H](O)[C@H](O)[C@H]2O[C@H]2C[C@](C)(N)[C@H](O)[C@H](C)O2)Oc2ccc(cc2Cl)[C@H]1O [vancomycin, reference compound] | 2 µg/mL (≈ 1.38 µM) | 100% | very little killing | 8 µg/mL (≈ 5.52 µM) |  |  |  |  |  |  |  | 
Gly218Asp: lysostaphin variant with a single change, glycine to aspartic acid, at position 218 of the mature protein |  |  |  |  | 0% | 17% | 33% | 83% | .06 µg/mL | .06 µg/mL | .03 µg/mL | .03 µg/mL
